Reference: patent US8329646B2, “Methods for the treatment of muscle loss” (Nestec S.A., priority 2006, dated 2012)
“Also recorded” adds a separate entry of the source.

Columns and labels:
murine C2C12 myotubes [1] = test: Protein synthesis in C2C12 myotubes exposed to PIF or Angiotensin II; type: cell-based; conditions: for reduction of protein synthesis when incubated alone: FIG. 6, FIG. 8, b61, compared to the control; for suppression of the inhibition of protein synthesis by PIF and Ang II: in the presence of PIF or Ang II
Text: (§1) In order to determine the efficacy of branched chain amino acids (BCAAs) and other agents in reducing muscle catabolism, murine C2C12 myotubes were exposed to PIF or Angiotensin II in combination with amino acids (including BCAAs), insulin, insulin-like growth factor-1 (IGF-1), and a PKR inhibitor. PIF was extracted and purified from MAC16 tumors as described by Smith et al., Effect of a Cancer Cachectic Factor on Protein Synthesis/Degradation in Murine C2C12 Myoblasts: Modulation by Eicosapentaenoic Acid, Cancer Research, 59:5507-13 (1999), which is hereby incorporated by reference. Protein degradation was determined using the method described by Whitehouse et al., Increased Expression of the Ubiquitin-Proteasome Pathway in Murine Myotubes by Proteolysis-Inducing Factor (PIF) is Associated with Activation of the Transcription Factor NF-κB, British Journal of Cancer, 89:1116-22 (2003), which is also hereby incorporated by reference.
The measured proteolytic activity of PIF can be more specifically described as ubiquitin-like degradation activity.

murine C2C12 myotubes [2] = test: Protein degradation in C2C12 myotubes exposed to PIF or Angiotensin II; type: cell-based
Experimental: as §1, with “PIF” for “In order to determine the efficacy of branched chain amino acids (BCAAs) and other agents in reducing muscle catabolism, murine C2C12 myotubes were exposed to PIF or Angiotensin II in combination with amino acids (including BCAAs), insulin, insulin-like growth factor-1 (IGF-1), and a PKR inhibitor. PIF”

eIF2-α = test: Densitometric analysis of Western blots of phosphorylated eIF2-α in C2C12 myotubes; type: cell-based, murine; conditions: FIG. 2, FIG. 3, agent in combination with PIF, compared to PIF alone or to the control
Text: as §1
The control sample was incubated only in phosphate buffered saline (PBS).

**Q.** How did the “protein synthesis levels, PKR inhibitor added to PIF” value (murine C2C12 myotubes [1]; FIG. 6, in combination with PIF) turn out when `O=C1Nc2ccc3ncsc3c2/C1=C/c1cnc[nH]1` [PKR inhibitor] was run?
**A.** reversed protein synthesis levels back to about those of the control

**Q.** What about the “protein synthesis levels, PKR inhibitor added to Angiotensin II” value (murine C2C12 myotubes [1]; FIG. 8, in combination with Angiotensin II) of the same compound?
**A.** maintained protein synthesis levels at about that of the control

**Q.** And the “protein degradation levels, PKR inhibitor added to PIF” value (murine C2C12 myotubes [2]; FIG. 5, in combination with PIF)?
**A.** reversed protein degradation levels back to about those of the control

**Q.** What about the “protein degradation levels, PKR inhibitor added to Angiotensin II” value (murine C2C12 myotubes [2]; FIG. 7, in combination with Angiotensin II) of the same compound?
**A.** maintaining protein degradation levels at about that of the control

**Q.** For `N=C(N)NCCC[C@H](N)C(=O)O` [arginine], which “eIF2-α phosphorylation in the presence of PIF” value (“eIF2-α phosphorylation” below) (eIF2-α) is on record?
**A.** greater than that of the control

**Q.** For `CC[C@H](C)[C@H](N)C(=O)O` [isoleucine], which “eIF2-α phosphorylation” value (eIF2-α) is on record?
**A.** reduced such phosphorylation to about the level of the control or below

**Q.** For `CC(C)C[C@H](N)C(=O)O` [leucine], which “eIF2-α phosphorylation” value (eIF2-α) is on record?
**A.** reduced such phosphorylation to about the level of the control or below

**Q.** How did the “eIF2-α phosphorylation” value (eIF2-α) turn out when `CSCC[C@H](N)C(=O)O` [methionine] was run?
**A.** greater than that of the control

**Q.** How did the “eIF2-α phosphorylation” value (eIF2-α) turn out when `CC(C)[C@H](N)C(=O)O` [valine] was run?
**A.** reduced such phosphorylation to about the level of the control or below

**Q.** With “Angiotensin II (DRVYIHPF; Angiotensin-2; UniProt P01019 25-32, looked up)” as the compound, how does the “reduction of protein synthesis when incubated alone” value (murine C2C12 myotubes [1]) read?
**A.** about 40%

**Q.** And the “reduction of protein synthesis when incubated alone” value (murine C2C12 myotubes [1]; listed as Ang II)?
**A.** 40%

**Q.** And the “increase of protein degradation when incubated alone” value (murine C2C12 myotubes [2]; FIG. 5, FIG. 7, compared to the control)?
**A.** about 51%

**Q.** With IGF-1: insulin-like growth factor-1 as the compound, how does the “suppression of the inhibition of protein synthesis by PIF and Ang II” value (murine C2C12 myotubes [1]) read?
**A.** effective in suppressing the inhibition of protein synthesis

**Q.** And the “eIF2-α phosphorylation” value (eIF2-α)?
**A.** significantly reduced

**Q.** What about the “eIF2-α phosphorylation” value (eIF2-α; listed as IGF1) of the same compound?
**A.** completely attenuated

**Q.** How did the “suppression of the inhibition of protein synthesis by PIF and Ang II” value (murine C2C12 myotubes [1]) turn out when insulin: an anabolic hormone was run?
**A.** effective in suppressing the inhibition of protein synthesis

**Q.** And the “eIF2-α phosphorylation” value (eIF2-α)?
**A.** significantly reduced; also recorded: completely attenuated
